Data: publication PMC9231138, “Dihydrotanshinone I Enhances Cell Adhesion and Inhibits Cell Migration in Osteosarcoma U−2 OS Cells through CD44 and Chemokine Signaling” (Molecules, 2022)
Where two headings read alike, the source gives them in different places.

Legend:
U−2 OS cells [1] = experiment: MTT cell proliferation assay, U−2 OS cells; assay type: cell-based; conditions: Homo sapiens, U2OS
Method: (§1) The effects of tanshinones (DS−1 to DS−5) on the proliferation of U−2 OS cells, HeLa cells, and NRK−49F cells were measured by the classical MTT method with minor modifications as follows. Cells were seeded at 5000 per well in 96-well plates, with each group being repeated in 5 wells, and were incubated for 12 h. DS−1 to DS−5 were added at gradient concentrations, then incubated for 24 and 48 h, respectively. Then, 20 μL MTT solution (solved in PBS, 5 mg/mL) was added to every well, and the cells were further incubated at 37 °C for 4 h until a purple precipitate was visible. The plate was centrifuged at 1000 rpm for 1 min; the supernatant was suctioned, and 150 μL of DMSO was added per well; the plate was shaken on a shaker protected from light for 15 min. We placed the plate in an enzyme marker and measured the absorbance values at a 490 nm wavelength.

NRK−49F cells = experiment: MTT cell proliferation assay, NRK−49F cells; assay type: cell-based, rat; conditions: Rattus norvegicus, 24 h, read-out: IC50 NRK−49F cells (24 h)
Method: as §1

cyclin E1 = experiment: RT-PCR cyclin E1 mRNA in U−2 OS cells; assay type: cell-based, human; conditions: 24 h
Method: (§2) Total RNA within cells was extracted by the RNAeasy™ Animal Long RNA Isolation Kit with Spin Column (Shanghai, Beyotime); the concentrations and OD260/OD280 and OD230/OD260 values were measured by NanoDrop. Five micrograms of RNA was used for reverse transcription; each sample was diluted to 16 μL, and 4 μL of synthesized premix solution (5×) was added, then the mixtures were placed in a 42 °C water bath for 10 min, then an 80 °C water bath for 10 min to deactivate reverse transcriptase. After reverse transcription, each sample was diluted to 140 μL. PCR amplification was carried out by the ABI700 real-time PCR system, and the amplification reaction was detected with a SYBR probe. After PCR, actin and GAPDH were used as internal references, and the relative standard curve method (2^−ΔΔcT) determined the relative expression of mRNA.

p21 = experiment: RT-PCR p21 mRNA in U−2 OS cells; assay type: cell-based, human; conditions: 24 h
Method: as §2

FASN = experiment: RT-PCR FASN mRNA in U−2 OS cells; assay type: cell-based, human; conditions: 24 h
Method: as §2

vimentin = experiment: RT-PCR vimentin mRNA in U−2 OS cells; assay type: cell-based, human; conditions: 24 h
Method: as §2

U−2 OS cells [2] = experiment: Cell adhesion: trypsin digestion time, U−2 OS cells; assay type: cell-based, human; conditions: DS−1 7.5 μM for 24 h, trypsin at 25 °C; control within 120 s
Method: We wondered if there were other pathways affecting cell migration besides EMT signals.
Figure 7 DS−1 enhanced U−2 OS cells’ adhesion. (A) The morphological changes of U−2 OS cells treated with/without DS−1. Cells were treated with 0 and 7.5 μM DS−1 for 24 h, washed with PBS, and digested with trypsin at 25 °C under a microscope, and photos were taken every 30 s. The percentages of digested cells are recorded in (B). (C) Heatmap of genes related to the adherens’ junction in the control group and DS−1 group. (D) U−2 OS cells were treated with 0 and 7.5 μM DS−1 for 24 h, and the expression of CD44 was observed by immunofluorescence. (E,F) CD44 and GAPDH were analyzed by Western blot and calculated by Image J. (G) The relative expression of 4 kinds of MT-MMPs was analyzed by the transcriptome, as shown in the heatmap. (H) After being treated with DS−1, the relative expression of MT-MMP-1 was verified by RT-PCR. Values are the average of three independent experiments, * p < 0.05, ** p < 0.01, *** p < 0.005.

CD44 = experiment: Western blot of 80 kDa and 70 kDa CD44; assay type: cell-based, human; conditions: DS−1 2.5, 5.0, and 7.5 µM for 24 h
Method: (§3) Sample preparation: U−2 OS cells seeded in 10 cm Petri dishes were collected and washed with ice-cold PBS and RIPA lysis buffer with PMAF; phosphatase inhibitor was added, and the tubes were placed on ice for 30 min and vortexed for 30 s at intervals of 10 min. The samples were centrifuged at 12,000 g at 4 °C for 15 min, and the supernatants were collected in new centrifuge tubes. The protein samples were placed on ice, and the concentration of each protein sample was measured by the BCA kit (Thermo). The protein concentration was adjusted to the same by milli Q ultrapure water.
(§4) Loading and running the gel: Equal amounts of protein were loaded into the wells of the 10% SDS-PAGE gel, along with molecular weight markers, and 15 μg of total protein from the cell lysate was loaded. We then ran the gel for 45 min at 200 V.
(§5) Transferring the protein: We prepared the transfer stack as follows: negative plate, sponge, filter paper, gel, PVDF membrane, filter paper, sponge, and positive plate. The transfer was for 90 min at 200 mA.
(§6) Antibody staining: We blocked the membrane for 1 h at room temperature using 5% blocking solution, then incubated the membrane with appropriate dilutions of the primary antibody in the blocking solution overnight at 4 °C. […] Images were acquired using darkroom development techniques for chemiluminescence and analyzed by Image J.

MT-MMP-1 = experiment: RT-PCR MT-MMP-1 mRNA in U−2 OS cells; assay type: cell-based, human
Method: as §2

AKT = experiment: Western blot AKT; assay type: cell-based, human; conditions: DS−1 2.5, 5.0, and 7.5 µM, 24 h
Method: as §3, §4, §5, §6

IL6 = experiment: RT-PCR IL6 mRNA in U−2 OS cells; assay type: cell-based, human; conditions: 24 h
Method: as §2

STAT3 = experiment: Western blot STAT3; assay type: cell-based, human; conditions: DS−1 2.5, 5.0, and 7.5 µM, 24 h
Method: as §3, §4, §5, §6

p53 = experiment: Western blot p53; assay type: cell-based, human; conditions: DS−1 2.5, 5.0, and 7.5 µM, 24 h
Method: as §3, §4, §5, §6

Structure (SMILES): Cc1cccc2c3c(ccc12)C1=C(C(=O)C3=O)[C@@H](C)CO1 [DS−1, 15,16-Dihydrotanshinone I]
- IC50 (U−2 OS cells [1]; 24 h, read-out: IC50 U−2 OS cells (24 h)): 3.83 ± 0.49 µM
- IC50 (U−2 OS cells [1]; 48 h, read-out: IC50 U−2 OS cells (48 h)): 1.99 ± 0.37 µM
- IC50 (NRK−49F cells): 25 ± 1.98 µM
- cyclin E1 mRNA, fold of the control group (cyclin E1; first of three DS−1 doses (2.5 µM per Fig. 5 legend)): 0.52 ± 0.04 fold
- cyclin E1 mRNA, fold of the control group (cyclin E1; second of three DS−1 doses (5.0 µM per Fig. 5 legend)): 0.48 ± 0.08 fold
- cyclin E1 mRNA, fold of the control group (cyclin E1; third of three DS−1 doses (7.5 µM per Fig. 5 legend)): 0.36 ± 0.04 fold
- p21 mRNA, fold of the control group (p21; DS−1 2.5 µM): 10.1 ± 3.9 fold
- p21 mRNA, fold of the control group (p21; DS−1 5.0 µM): 56.8 ± 8.2 fold
- p21 mRNA, fold of the control group (p21; DS−1 7.5 µM): 90.2 ± 6.7 fold
- FASN mRNA, fold of the control group (FASN; DS−1 2.5 µM): 0.59 ± 0.14 fold
- FASN mRNA, fold of the control group (FASN; DS−1 5.0 µM): 0.51 ± 0.07 fold
- FASN mRNA, fold of the control group (FASN; DS−1 7.5 µM): 0.26 ± 0.01 fold
- vimentin mRNA, fold of the control group (vimentin; DS−1 2.5 µM): 0.67 ± 0.11 fold
- vimentin mRNA, fold of the control group (vimentin; DS−1 5.0 µM): 0.51 ± 0.11 fold
- vimentin mRNA, fold of the control group (vimentin; DS−1 7.5 µM): 0.12 ± 0.16 fold
- time of trypsin digestion (U−2 OS cells [2]): ≤ 210 s
- 70 kDa CD44 protein (CD44): decreased
- 80 kDa CD44 protein (CD44): significantly increased
- MT-MMP-1 mRNA expression, fold (MT-MMP-1; DS−1 2.5 µM): 0.92 ± 0.14 fold
- MT-MMP-1 mRNA expression, fold (MT-MMP-1; DS−1 5.0 µM): 0.72 ± 0.03 fold
- MT-MMP-1 mRNA expression, fold (MT-MMP-1; DS−1 7.5 µM): 0.07 ± 0.13 fold
- expression of AKT (AKT): no significant change
- IL6 mRNA, fold (IL6; DS−1 2.5 µM): 0.81 ± 0.09 fold
- IL6 mRNA, fold (IL6; DS−1 5.0 µM): 0.51 ± 0.07 fold
- IL6 mRNA, fold (IL6; DS−1 7.5 µM): 0.42 ± 0.12 fold
- total protein content of STAT3 (STAT3): did not change significantly
- level of p53 (p53): significantly increased
